Results from DBAASP.
≈ marks a conversion by molar mass, not a printed value. Where “and” joins values, the source holds several entries; their conditions need not be identical. Equal values may be shown once. One block for each compound: values may come before it.

Experiments:
Assay in all cases: ≥ marks a high value that may be exact or a test limit, other limits are often not marked, values filed in µg/mL are converted to µM
[1] = system: Staphylococcus aureus
[2] = system: Streptococcus sobrinus ATCC 33478
[3] = system: Enterococcus faecalis
[4] = system: Pseudomonas aeruginosa PAK
[5] = system: Streptococcus sanguinis NY101
[6] = system: Streptococcus mutans UA159
[7] = system: Escherichia coli W3110
[8] = system: Staphylococcus aureus 930918-3
[9] = system: Pseudomonas aeruginosa MR3007
[10] = system: Staphylococcus aureus ATCC 33591
[11] = system: Bacteroides fragilis ATCC 25285
[12] = system: Enterococcus faecalis ATCC 29212
[13] = system: Clostridium tertium ATCC 19465
[14] = system: Enterobacter cloacae HNTCC 53001
[15] = system: Staphylococcus aureus T7/5
[16] = system: Prevotella melaninogenica
[17] = system: Klebsiella pneumoniae CGMCC 1.1736
[18] = system: Fusobacterium nucleatum
[19] = system: Acinetobacter baumannii
[20] = system: Peptoniphilus asaccharolyticus ATCC 29743
[21] = system: Staphylococcus aureus T58/7
[22] = system: Peptostreptococcus anaerobius
[23] = system: Clostridium perfringens ATCC 10543
[24] = system: Batrachochytrium dendrobatidis
[25] = system: Proteus mirabilis ATCC 25933
[26] = system: Bacteroides fragilis
[27] = system: Clostridium septicum
[28] = system: Klebsiella pneumoniae KK3 9904
[29] = system: Bacillus subtilis CGMCC 1.3376
[30] = system: Staphylococcus aureus T27/9
[31] = system: Candida albicans ATCC 90028
[32] = system: Escherichia coli ATCC 25922
[33] = system: Salmonella enterica subsp. enterica serovar Typhimurium LT2
[34] = system: Pseudomonas aeruginosa CGMCC 1.2421
[35] = system: Staphylococcus aureus CGMCC 1.8721
[36] = system: Staphylococcus epidermidis CGMCC 1.4260
[37] = system: Escherichia coli CGMCC 1.8732
[38] = system: Cutibacterium acnes
[39] = system: Fusobacterium varium ATCC 27725
[40] = system: Cutibacterium acnes ATCC 11828
[41] = system: Staphylococcus epidermidis RP62A
[42] = system: Staphylococcus aureus NCTC 8325
[43] = system: Pseudomonas aeruginosa ATCC 27853
[44] = system: Staphylococcus aureus ATCC 43300
[45] = system: Escherichia coli ATCC 23716
[46] = system: Bordetella bronchiseptica CUN 11844-99
[47] = system: Pseudomonas aeruginosa CUN 4158-02
[48] = system: Brucella abortus 9.49 (per-)
[49] = system: Acinetobacter baumannii ATCC 19606
[50] = system: Yersinia pestis KIM pYV
[51] = system: Staphylococcus aureus SA113

MIC [1]: > 195 µM | MIC [2]: 24.3 µM (≈ 62.5 µg/mL) | MIC [3]: ≥ 97.4 µM | MIC [4]: ≥ 48.7 µM | MIC [5]: 24.3 µM (≈ 62.5 µg/mL) | MIC [6]: 12.5 µM (≈ 32 µg/mL) | MIC [7]: ≥ 48.7 µM
Structure (SMILES): CC[C@H](C)[C@H](NC(=O)[C@H](Cc1ccccc1)NC(=O)[C@H](Cc1cnc[nH]1)NC(=O)[C@H](CCCCN)NC(=O)[C@@H](NC(=O)[C@H](Cc1ccccc1)NC(=O)[C@@H]1CCCN1C(=O)[C@H](Cc1ccc(O)cc1)NC(=O)[C@@H]1CCCN1C(=O)[C@H](Cc1ccccc1)NC(=O)[C@H](Cc1cnc[nH]1)NC(=O)[C@H](CC(C)C)NC(=O)[C@H](Cc1cnc[nH]1)NC(=O)[C@H](Cc1ccccc1)NC(=O)[C@H](Cc1cnc[nH]1)NC(=O)[C@@H](N)Cc1ccccc1)[C@@H](C)CC)C(=O)N[C@@H](Cc1cnc[nH]1)C(=O)N[C@@H](CCCN=C(N)N)C(=O)N[C@@H](Cc1ccccc1)C(N)=O [FHFHLHFPYPFIKHFIHRF]

MIC [8]: ≥ 143 µM | MIC [9]: ≥ 143 µM | MIC [10]: ≥ 143 µM
Structure (SMILES): CC[C@H](C)[C@H](NC(=O)[C@H](CCCCN)NC(=O)[C@H](CCCCN)NC(=O)[C@H](CC(C)C)NC(=O)[C@H](CCCCN)NC(=O)[C@H](CCC(=O)O)NC(=O)[C@H](CCCCN)NC(=O)[C@@H](NC(=O)[C@@H](N)CCCCN)[C@@H](C)CC)C(=O)NCC(=O)N[C@@H](CCC(N)=O)C(=O)N[C@@H](CCCCN)C(=O)N[C@H](C(=O)N[C@@H](CCC(N)=O)C(=O)NCC(=O)O)[C@@H](C)CC [KIKEKLKKIGQKIQG]

MIC [11]: ≥ 50 µM | MIC [12]: 6 µM (≈ 14.4 µg/mL) | MIC [13]: 12.5 µM (≈ 29.9 µg/mL) | MIC [14]: 12.5 µM (≈ 29.9 µg/mL) | MIC [15]: 2.5 µM (≈ 5.98 µg/mL) | MIC [16]: 3 µM (≈ 7.18 µg/mL) | MIC [17]: 12.5 µM (≈ 29.9 µg/mL) | MIC [18]: ≥ 50 µM | MIC [19]: 12.5 µM (≈ 29.9 µg/mL) | MIC [20]: ≥ 50 µM | MIC [21]: 20 µM (≈ 47.8 µg/mL) | MIC [22]: 25 µM (≈ 59.8 µg/mL) | MIC [23]: ≥ 50 µM | MIC [24]: 25 µM (≈ 59.8 µg/mL) | MIC [25]: ≥ 100 µM | MIC [26]: ≥ 50 µM | MIC [27]: 12.5 µM (≈ 29.9 µg/mL) | MIC [28]: ≥ 50 µM | MIC [29]: 3.13 µM (≈ 7.49 µg/mL) | MIC [30]: 5 µM (≈ 12 µg/mL) | MIC [31]: 19 µM and 12.5 µM | MIC [32]: 20 µM and 12.5 µM | MIC [33]: ≥ 50 µM | MIC [34]: 12.5 µM (≈ 29.9 µg/mL) | MIC [35]: 6.25 µM (≈ 14.9 µg/mL) | MIC [36]: 3.13 µM (≈ 7.49 µg/mL) | MIC [37]: 25 µM (≈ 59.8 µg/mL) | MIC [38]: 25 µM (≈ 59.8 µg/mL) | MIC [39]: ≥ 50 µM | MIC [40]: 12.5 µM (≈ 29.9 µg/mL) | MIC [41]: 3 µM (≈ 7.18 µg/mL) | MIC [42]: 3.5 µM and 6 µM | MIC [43]: 25 µM (≈ 59.8 µg/mL)
Structure (SMILES): CC[C@H](C)[C@H](NC(=O)[C@H](C)N)C(=O)NCC(=O)N[C@@H](CO)C(=O)N[C@H](C(=O)N[C@@H](CC(C)C)C(=O)NCC(=O)N[C@@H](C)C(=O)N[C@@H](CC(C)C)C(=O)N[C@@H](C)C(=O)N[C@@H](CCCCN)C(=O)NCC(=O)N[C@@H](CC(C)C)C(=O)N1CCC[C@H]1C(=O)N[C@H](C(=O)N[C@@H](CC(C)C)C(=O)N[C@H](C(=O)N[C@@H](CO)C(=O)N[C@@H](Cc1c[nH]c2ccccc12)C(=O)N[C@H](C(=O)N[C@@H](CCCCN)C(=O)N[C@@H](CC(N)=O)C(=O)N[C@@H](CCCN=C(N)N)C(N)=O)[C@@H](C)CC)[C@@H](C)CC)[C@@H](C)O)[C@@H](C)CC [AIGSILGALAKGLPTLISWIKNR]

Structure (SMILES): CC[C@H](C)[C@H](NC(=O)[C@H](CCCCN)NC(=O)[C@H](CCCCN)NC(=O)[C@H](CO)NC(=O)[C@@H](NC(=O)CNC(=O)[C@H](CCCN=C(N)N)NC(=O)[C@H](CC(C)C)NC(=O)[C@@H](NC(=O)[C@@H](N)CCCCN)[C@@H](C)CC)C(C)C)C(=O)N[C@@H](CCSC)C(=O)N[C@@H](CCCN=C(N)N)C(=O)N[C@@H](CCCN=C(N)N)C(=O)N[C@H](C(=O)N[C@@H](CO)C(=O)N[C@@H](CCCCN)C(=O)N[C@@H](CC(=O)O)C(=O)N[C@H](C(=O)N[C@@H](CC(C)C)C(=O)N[C@H](C(=O)NCC(=O)N[C@@H](CCCCN)C(=O)N[C@@H](CCCCN)C(N)=O)[C@@H](C)O)[C@@H](C)CC)[C@@H](C)CC [KILRGVSKKIMRRISKDILTGKK]
MIC [44]: > 95.9 µM | MIC [45]: 5.99 µM and 4.68 µM | MIC [1]: 24 µM and 48 µM | MIC [46]: 0.375 µM (≈ 1 µg/mL) | MIC [47]: 5.99 µM (≈ 16 µg/mL) | MIC [48]: 1.5 µM (≈ 4 µg/mL) | MIC [49]: 3 µM (≈ 8 µg/mL) | MIC [32]: 5.99 µM (≈ 16 µg/mL) | MIC [50]: ≥ 48 µM | MIC [51]: ≥ 95.9 µM
